Measured values taken from ChEMBL document CHEMBL2380214, “Novel hybrids of (phenylsulfonyl)furoxan and anilinopyrimidine as potent and selective epidermal growth factor receptor inhibitors for intervention of non-small-cell lung cancer” (J Med Chem, 2013).
Active and inactive are the calls of the source. The rule behind the calls is not given here.

What was measured:
[1] = Induction of NO production in human 16HBE14o- cells harboring wild type EGFR assessed as increase in nitrite level at 100 uM after 150 mins by Griess assay; assay type: cell-based; conditions: 2.5 h
Mus musculus = assay: Toxicity in athymic BALB/c nude mouse xenografted with gefitinib-resistant human NCI-H1975 cells harboring EGFR L858R/[…] double mutant assessed as body mass loss at 14 mg/kg, ip qd administered for 14 days measured every other day during compound administration relative to vehicle-treated control; assay type: organism-based; set-up: dose 14 mg/kg, route intraperitoneal; conditions: in vivo, 336 h
cells [2] = assay type: ADME, cell-based; conditions: Homo sapiens, BEAS-2B, 72 h
Description: Cytotoxicity against human BEAS2B cells harboring wild type EGFR assessed as growth inhibition after 72 hrs by MTT assay

[3] = Selectivity ratio of IC50 for human A549 cells harboring wild type EGFR and k-RAS mutation to IC50 for gefitinib-resistant human NCI-H1975 cells harboring EGFR L858R/[…] double mutant; assay type: ADME, cell-based
A549 [4] = assay: Ratio of compound IC50 to WZ4002 IC50 for human A549 cells harboring wild type EGFR and k-RAS mutation; assay type: ADME, cell-based
cells [5] = assay type: ADME, cell-based; conditions: Homo sapiens, 16HBE14o-, 72 h
Description: Cytotoxicity against human 16HBE14o- cells harboring wild type EGFR assessed as growth inhibition after 72 hrs by MTT assay

[6] = system: Epidermal growth factor receptor (Homo sapiens), P00533 [L858R,T790M]; assay: Inhibition of EGFR L858R/[…] double mutant phosphorylation in gefitinib-resistant human NCI-H1975 cells after 24 hrs by Western blot analysis; assay type: cell-based
Sequence of Epidermal growth factor receptor (Homo sapiens), P00533 [L858R,T790M] (P00533 whole entry T790M/L858R, looked up): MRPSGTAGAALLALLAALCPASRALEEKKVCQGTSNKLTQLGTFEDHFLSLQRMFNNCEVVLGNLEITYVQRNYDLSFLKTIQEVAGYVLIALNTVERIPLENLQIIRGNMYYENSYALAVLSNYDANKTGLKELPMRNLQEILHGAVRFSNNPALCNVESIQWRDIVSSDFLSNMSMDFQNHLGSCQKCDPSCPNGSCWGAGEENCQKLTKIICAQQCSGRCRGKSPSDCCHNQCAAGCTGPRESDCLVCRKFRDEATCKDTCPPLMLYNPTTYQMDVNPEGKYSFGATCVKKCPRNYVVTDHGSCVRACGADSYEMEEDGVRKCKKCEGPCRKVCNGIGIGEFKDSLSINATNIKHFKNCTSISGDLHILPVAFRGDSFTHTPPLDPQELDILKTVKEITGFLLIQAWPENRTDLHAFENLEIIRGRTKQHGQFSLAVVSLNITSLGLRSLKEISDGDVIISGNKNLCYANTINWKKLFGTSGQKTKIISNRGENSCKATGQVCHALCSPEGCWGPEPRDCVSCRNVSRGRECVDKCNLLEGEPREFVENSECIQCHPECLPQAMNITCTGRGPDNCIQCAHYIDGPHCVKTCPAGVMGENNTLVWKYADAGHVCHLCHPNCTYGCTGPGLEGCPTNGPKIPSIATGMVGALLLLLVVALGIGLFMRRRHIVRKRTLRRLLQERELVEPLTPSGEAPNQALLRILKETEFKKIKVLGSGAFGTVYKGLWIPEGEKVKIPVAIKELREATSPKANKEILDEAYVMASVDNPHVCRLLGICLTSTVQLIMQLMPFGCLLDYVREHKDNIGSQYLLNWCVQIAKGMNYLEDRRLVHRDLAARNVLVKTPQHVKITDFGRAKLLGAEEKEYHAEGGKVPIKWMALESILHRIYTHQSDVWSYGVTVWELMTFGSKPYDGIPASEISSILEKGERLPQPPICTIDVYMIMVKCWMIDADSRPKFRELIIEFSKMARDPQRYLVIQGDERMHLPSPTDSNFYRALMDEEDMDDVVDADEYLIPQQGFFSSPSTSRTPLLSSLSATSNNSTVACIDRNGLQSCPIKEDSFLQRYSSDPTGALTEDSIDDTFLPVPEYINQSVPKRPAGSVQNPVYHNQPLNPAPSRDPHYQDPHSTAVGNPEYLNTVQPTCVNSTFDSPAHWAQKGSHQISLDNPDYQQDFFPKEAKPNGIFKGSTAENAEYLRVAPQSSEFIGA

HCC827 [7] = assay: Cytotoxicity against gefitinib-sensitive human HCC827 cells harboring EGFR […] deletion mutant assessed as growth inhibition at 1 uM after 24 hrs by MTT assay in presence of hemoglobin; assay type: functional, cell-based
cells [8] = assay type: functional, cell-based; conditions: Homo sapiens, HCC827, 72 h
[9] = Selectivity ratio of IC50 for human 16HBE14o- cells harboring wild type EGFR to IC50 for gefitinib-resistant human NCI-H1975 cells harboring EGFR L858R/[…] double mutant; assay type: ADME, cell-based; conditions: read-out: Ratio IC50
A549 [10] = assay: cells; assay type: ADME, cell-based; conditions: Homo sapiens, A549, 72 h
Description: Cytotoxicity against human A549 cells harboring wild type EGFR and k-RAS mutation assessed as growth inhibition after 72 hrs by MTT assay

[11] = biological target: Epidermal growth factor receptor (Homo sapiens, UniProt P00533)
Sequence of Epidermal growth factor receptor (Homo sapiens, UniProt P00533) (P00533 whole entry): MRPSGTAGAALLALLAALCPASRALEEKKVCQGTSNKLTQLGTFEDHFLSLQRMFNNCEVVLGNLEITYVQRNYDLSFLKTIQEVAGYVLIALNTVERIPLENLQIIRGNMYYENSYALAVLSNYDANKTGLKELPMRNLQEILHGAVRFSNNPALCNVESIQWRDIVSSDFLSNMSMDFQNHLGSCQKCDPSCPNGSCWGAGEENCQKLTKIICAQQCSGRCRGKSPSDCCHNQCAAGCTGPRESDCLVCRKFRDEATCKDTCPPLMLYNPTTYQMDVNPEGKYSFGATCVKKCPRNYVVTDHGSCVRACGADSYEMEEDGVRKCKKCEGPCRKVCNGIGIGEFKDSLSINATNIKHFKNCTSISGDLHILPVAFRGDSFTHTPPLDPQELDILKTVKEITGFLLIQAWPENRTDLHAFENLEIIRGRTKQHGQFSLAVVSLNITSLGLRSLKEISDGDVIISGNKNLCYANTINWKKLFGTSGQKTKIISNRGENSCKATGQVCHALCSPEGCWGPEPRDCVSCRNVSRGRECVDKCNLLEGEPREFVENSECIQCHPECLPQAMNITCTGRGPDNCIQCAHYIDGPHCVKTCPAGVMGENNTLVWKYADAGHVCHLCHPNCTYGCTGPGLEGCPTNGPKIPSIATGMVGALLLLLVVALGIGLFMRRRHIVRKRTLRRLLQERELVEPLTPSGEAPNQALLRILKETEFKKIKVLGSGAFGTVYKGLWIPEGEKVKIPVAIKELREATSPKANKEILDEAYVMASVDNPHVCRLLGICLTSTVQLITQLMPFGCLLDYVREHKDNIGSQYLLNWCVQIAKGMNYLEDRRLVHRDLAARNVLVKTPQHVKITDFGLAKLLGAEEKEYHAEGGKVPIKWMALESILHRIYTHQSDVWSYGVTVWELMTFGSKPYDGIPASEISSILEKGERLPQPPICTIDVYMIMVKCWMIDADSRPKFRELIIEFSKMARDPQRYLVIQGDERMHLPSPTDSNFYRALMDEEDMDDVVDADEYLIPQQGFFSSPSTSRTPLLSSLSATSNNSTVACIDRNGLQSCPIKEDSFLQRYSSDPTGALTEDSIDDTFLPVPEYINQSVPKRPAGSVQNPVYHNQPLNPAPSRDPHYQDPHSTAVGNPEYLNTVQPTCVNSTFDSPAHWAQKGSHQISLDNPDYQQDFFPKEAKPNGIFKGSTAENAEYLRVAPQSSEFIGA
Description: Inhibition of wild type EGFR (unknown origin) after 1.5 hrs by FRET-based Z'Lyte assay

[12] = Selectivity ratio of IC50 for human BEAS2B cells harboring wild type EGFR to IC50 for gefitinib-resistant human NCI-H1975 cells harboring EGFR L858R/[…] double mutant; assay type: ADME, cell-based; conditions: read-out: Ratio IC50
NCI-H1975 [13] = assay: Antitumor activity against gefitinib-resistant human NCI-H1975 cells harboring EGFR L858R/[…] double mutant xenografted in athymic BALB/c nude mouse assessed as tumor growth inhibition at 14 mg/kg, ip qd administered for 14 days measured every other day during compound administration relative to vehicle-treated control; assay type: functional; conditions: 336 h, route intraperitoneal, read-out: TGI
NCI-H1975 [14] = assay: Cytotoxicity against gefitinib-resistant human NCI-H1975 cells harboring EGFR L858R/[…] double mutant assessed as growth inhibition after 72 hrs by MTT assay; assay type: functional, cell-based; conditions: NCI-H1975, 72 h
NCI-H1975 [15] = assay: Cytotoxicity against gefitinib-resistant human NCI-H1975 cells harboring EGFR L858R/[…] double mutant assessed as growth inhibition at 1 uM after 24 hrs by MTT assay in presence of hemoglobin; assay type: functional, cell-based
A-431 [16] = assay: cells; assay type: ADME, cell-based; conditions: Homo sapiens, A-431, 72 h
Description: Cytotoxicity against human A431 cells overexpressing wild type EGFR assessed as growth inhibition after 72 hrs by MTT assay

[17] = Selectivity ratio of IC50 for human A431 cells overexpressing wild type EGFR to IC50 for gefitinib-resistant human NCI-H1975 cells harboring EGFR L858R/[…] double mutant; assay type: ADME, cell-based
[18] = system: Epidermal growth factor receptor (Homo sapiens), P00533 [L858R,T790M]; assay: Inhibition of EGFR L858R/[…] double mutant phosphorylation in gefitinib-resistant human NCI-H1975 cells assessed as inhibition of AKT phosphorylation after 24 hrs by Western blot analysis; assay type: cell-based
[19] = biological target: Epidermal growth factor receptor (Homo sapiens, UniProt P00533, L858R/T790M); assay type: protein assay
Sequence of Epidermal growth factor receptor (Homo sapiens, UniProt P00533, L858R/T790M) (P00533 25-1210 T790M/L858R limits assumed): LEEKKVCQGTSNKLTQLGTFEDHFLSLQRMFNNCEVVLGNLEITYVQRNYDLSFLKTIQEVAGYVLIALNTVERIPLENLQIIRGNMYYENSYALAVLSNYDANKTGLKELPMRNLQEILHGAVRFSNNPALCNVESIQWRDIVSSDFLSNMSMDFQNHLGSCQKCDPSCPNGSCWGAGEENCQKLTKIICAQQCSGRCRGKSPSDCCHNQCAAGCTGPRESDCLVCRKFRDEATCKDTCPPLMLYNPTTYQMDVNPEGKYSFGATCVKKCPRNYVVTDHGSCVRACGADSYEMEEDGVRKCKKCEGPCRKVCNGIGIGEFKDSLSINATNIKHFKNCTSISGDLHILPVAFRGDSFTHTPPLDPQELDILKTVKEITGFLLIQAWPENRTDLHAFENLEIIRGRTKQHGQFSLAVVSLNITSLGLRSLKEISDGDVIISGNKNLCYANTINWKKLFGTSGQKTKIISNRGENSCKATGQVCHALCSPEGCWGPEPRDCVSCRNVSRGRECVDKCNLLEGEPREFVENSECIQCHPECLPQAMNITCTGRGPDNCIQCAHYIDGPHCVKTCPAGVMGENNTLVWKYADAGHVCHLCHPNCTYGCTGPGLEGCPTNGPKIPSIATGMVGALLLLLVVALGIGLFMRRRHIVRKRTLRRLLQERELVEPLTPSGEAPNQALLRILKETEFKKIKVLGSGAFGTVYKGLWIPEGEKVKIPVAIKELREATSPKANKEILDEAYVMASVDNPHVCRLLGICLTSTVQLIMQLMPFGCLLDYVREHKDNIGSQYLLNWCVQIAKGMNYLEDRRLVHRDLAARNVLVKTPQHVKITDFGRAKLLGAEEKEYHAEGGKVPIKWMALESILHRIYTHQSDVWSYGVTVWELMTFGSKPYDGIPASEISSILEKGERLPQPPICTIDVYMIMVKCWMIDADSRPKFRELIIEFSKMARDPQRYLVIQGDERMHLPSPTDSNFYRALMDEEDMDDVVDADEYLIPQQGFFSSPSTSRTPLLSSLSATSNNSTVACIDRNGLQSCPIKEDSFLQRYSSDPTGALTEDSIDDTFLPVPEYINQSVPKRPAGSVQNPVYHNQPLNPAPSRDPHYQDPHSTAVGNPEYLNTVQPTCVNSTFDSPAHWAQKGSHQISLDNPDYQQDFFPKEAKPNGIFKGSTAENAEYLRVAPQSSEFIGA
Description: Inhibition of EGFR L858R/T790M double mutant (unknown origin) after 1.5 hrs by FRET-based Z'Lyte assay

[20] = Selectivity ratio of IC50 for human BEAS2B cells harboring wild type EGFR to IC50 for gefitinib-sensitive human HCC827 cells harboring EGFR […] deletion mutant; assay type: ADME, cell-based; conditions: read-out: Ratio IC50
NCI-H1975 [21] = assay: Induction of apoptosis in gefitinib-resistant human NCI-H1975 cells harboring EGFR L858R/[…] double mutant after 24 hrs by annexin-V/7-AAD staining-based FACS flow cytometric analysis; assay type: functional, cell-based
[22] = Selectivity ratio of IC50 for human A549 cells harboring wild type EGFR and k-RAS mutation to IC50 for gefitinib-sensitive human HCC827 cells harboring EGFR […] deletion mutant; assay type: ADME, cell-based
[23] = Selectivity ratio of IC50 for human A431 cells overexpressing wild type EGFR to IC50 for gefitinib-sensitive human HCC827 cells harboring EGFR […] deletion mutant; assay type: ADME, cell-based
[24] = system: Epidermal growth factor receptor (Homo sapiens), P00533 [L858R,T790M]; assay: Inhibition of EGFR L858R/[…] double mutant phosphorylation in gefitinib-resistant human NCI-H1975 cells assessed as inhibition of ERK phosphorylation after 24 hrs by Western blot analysis; assay type: cell-based
NCI-H1975 [25] = assay: Inhibition of NFkappaB phosphorylation in gefitinib-resistant human NCI-H1975 cells harboring EGFR L858R/[…] double mutant at 0.01 to 1 uM after 24 hrs by Western blot analysis; assay type: cell-based
A-431 [26] = assay: Ratio of compound IC50 to WZ4002 IC50 for human A431 cells overexpressing wild type EGFR; assay type: ADME, cell-based
[27] = biological target: Epidermal growth factor receptor (Homo sapiens, UniProt P00533, L858R); assay type: protein assay
Sequence of Epidermal growth factor receptor (Homo sapiens, UniProt P00533, L858R) (P00533 25-1210 L858R limits assumed): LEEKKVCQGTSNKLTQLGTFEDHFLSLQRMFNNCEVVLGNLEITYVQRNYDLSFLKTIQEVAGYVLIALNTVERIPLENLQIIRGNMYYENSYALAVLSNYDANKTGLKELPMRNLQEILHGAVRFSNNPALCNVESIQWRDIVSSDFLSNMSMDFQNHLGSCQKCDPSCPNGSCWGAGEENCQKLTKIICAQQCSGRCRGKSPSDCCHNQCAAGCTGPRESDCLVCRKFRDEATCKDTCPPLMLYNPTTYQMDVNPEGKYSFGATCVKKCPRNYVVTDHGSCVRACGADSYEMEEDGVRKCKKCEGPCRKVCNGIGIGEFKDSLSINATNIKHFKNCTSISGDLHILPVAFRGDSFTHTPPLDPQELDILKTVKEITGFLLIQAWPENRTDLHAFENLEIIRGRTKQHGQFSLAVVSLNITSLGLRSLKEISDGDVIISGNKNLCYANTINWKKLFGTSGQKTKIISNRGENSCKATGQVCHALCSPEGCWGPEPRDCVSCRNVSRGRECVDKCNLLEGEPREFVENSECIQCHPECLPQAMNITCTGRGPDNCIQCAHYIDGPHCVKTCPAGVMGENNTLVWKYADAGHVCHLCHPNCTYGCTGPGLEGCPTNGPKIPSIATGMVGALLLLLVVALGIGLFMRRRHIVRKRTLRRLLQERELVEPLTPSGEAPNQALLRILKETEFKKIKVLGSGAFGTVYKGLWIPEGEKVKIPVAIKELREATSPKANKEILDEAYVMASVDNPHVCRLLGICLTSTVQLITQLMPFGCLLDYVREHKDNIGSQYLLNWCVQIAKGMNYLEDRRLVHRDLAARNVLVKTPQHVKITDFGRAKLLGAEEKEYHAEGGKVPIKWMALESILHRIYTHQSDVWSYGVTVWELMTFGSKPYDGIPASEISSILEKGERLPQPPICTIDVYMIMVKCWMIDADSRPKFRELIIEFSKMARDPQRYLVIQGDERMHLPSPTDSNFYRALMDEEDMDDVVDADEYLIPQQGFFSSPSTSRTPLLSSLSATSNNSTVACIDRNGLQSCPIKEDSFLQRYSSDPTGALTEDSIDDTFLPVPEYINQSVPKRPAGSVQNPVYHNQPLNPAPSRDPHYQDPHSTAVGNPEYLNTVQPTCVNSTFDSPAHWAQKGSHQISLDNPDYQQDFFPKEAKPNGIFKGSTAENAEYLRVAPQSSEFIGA
Description: Inhibition of EGFR L858R mutant (unknown origin) after 1.5 hrs by FRET-based Z'Lyte assay

HCC827 [28] = assay: Induction of apoptosis in gefitinib-sensitive human HCC827 cells harboring EGFR […] deletion mutant after 24 hrs by annexin-V/7-AAD staining-based FACS flow cytometric analysis; assay type: functional, cell-based
[29] = Induction of apoptosis in EGFR-independent human H460 cells at 1 to 5 uM after 24 hrs by annexin-V/7-AAD staining-based FACS flow cytometric analysis; assay type: cell-based; conditions: nci-h460, 24 h
NCI-H1975 [30] = assay: Induction of NO production in human NCI-H1975 cells harboring EGFR L858R/[…] double mutant assessed as increase in nitrite level at 100 uM after 150 mins by Griess assay; assay type: functional, cell-based
[31] = Selectivity ratio of IC50 for human 16HBE14o- cells harboring wild type EGFR to IC50 for gefitinib-sensitive human HCC827 cells harboring EGFR […] deletion mutant; assay type: ADME, cell-based; conditions: read-out: Ratio IC50
[32] = Ratio of compound IC50 to WZ4002 IC50 for human BEAS2B cells harboring wild type EGFR; assay type: ADME, cell-based; conditions: read-out: Ratio IC50

## C=CC(=O)Nc1cccc(Oc2nc(Nc3ccc(N4CCN(CC(=O)OCCCCCCOc5no[n+]([O-])c5S(=O)(=O)c5ccccc5)CC4)cc3OC)ncc2Cl)c1
[1]
  Activity: Non-toxic
Mus musculus
  Activity: Non-toxic
Cells [2]
  IC50: 44600 nM
[3]
  Ratio IC50: 60
A549 [4]
  Ratio IC50: 5
Cells [5]
  IC50: 23900 nM
[6]
  inhibition: Dose-dependent effect
HCC827 [7]
  growth inhibition (GI): inactive
Cells [8]
  IC50: 7 nM
[9]
  selectivity ratio: 40
A549 [10]
  IC50: > 50000 nM
[11]
  IC50: 292 nM
[12]
  selectivity ratio: 40
NCI-H1975 [13]
  inhibition in vivo at 14 mg/kg: 60%
NCI-H1975 [14]
  IC50: 29 nM
NCI-H1975 [15]
  growth inhibition (GI): inactive
A-431 [16]
  IC50: 5670 nM
[17]
  Ratio IC50: 60
[18]
  inhibition: Dose-dependent effect
[19]
  IC50: 47 nM
[20]
  selectivity ratio: 40
NCI-H1975 [21]
  Activity: Dose-dependent effect
[22]
  Ratio IC50: 60
[23]
  Ratio IC50: 60
[24]
  inhibition: Dose-dependent effect
NCI-H1975 [25]
  inhibition: Active
A-431 [26]
  Ratio IC50: 5
[27]
  IC50: 305 nM
HCC827 [28]
  Activity: Dose-dependent effect
[29]
  Activity: Non-toxic
NCI-H1975 [30]
  Activity: Active
[31]
  selectivity ratio: 40
[32]
  selectivity ratio: 5
